Where two headings read alike, the source gives them in different places.
Key:
SARS-CoV-2 = format: cell-based; settings: for Number of copies of viral genome (MOI = 0.05): Vero E6, 48 h; for Inhibitory activity on viral RNA load: dependence on dose (in words) / Viral nucleic acid load in vero E6 cells infected with SARS-CoV-2 (in words): 48 h after infection
Vero E6 cells = assay: Detection of drug cytotoxicity by CCK-8 kit; format: cell-based; settings: for Cell viability (% of negative control): 48 h
Description: The detection of drug cytotoxicity was performed by CCK-8 kit (Beoytime). Specific steps were as follows:
(1) 1×10^4 Vero E6 (ATCC) cells were inoculated into a 96-well plate and cultured at 37° C. for 8 hours.
(§1) (2) The test drug was diluted with DMSO to achieve an appropriate stock solution concentration, and then diluted with MEM medium (purchased from Gibco, Cat. No. 10370021) containing 2% FBS (purchased from Gibco, Cat. No. 16000044) to the same concentration as that for the drug treatment. The original medium in the 96-well plate was discarded, 100 μL of drug-containing MEM medium was added to the cells, and three replicate wells were made for each concentration. Negative controls (adding DMSO and medium to the cell wells without adding drug) and blank controls (no cells, adding DMSO and medium) were set. After the drug was added, the cells were cultured at 37° C. for 48 hours.
(3) 20 μL of CCK-8 solution (Beoytime) was added to the wells to be tested, mixed gently without generating air bubbles, and continued to incubate at 37° C. for 2 hours. OD450 was read on a microplate reader (purchased from Molecular Devices, model SpectraMax M5), and cell viability was calculated:
Cell viability (%)=(A(drug treatment group)−A(blank control))/(A(negative control)−A(blank control))×100%
wherein A represents reading of microplate reader.
as §1, with “of the” for “of”

Row | Structure (SMILES) | Number of copies of viral genome (MOI = 0.05) (SARS-CoV-2; 6.25 μM drug) | Number of copies of viral genome (MOI = 0.05) (SARS-CoV-2; 12.5 μM drug) | Number of copies of viral genome (MOI = 0.05) (SARS-CoV-2; 25 μM drug) | Number of copies of viral genome (MOI = 0.05) (SARS-CoV-2; 50 μM drug) | Number of copies of viral genome (MOI = 0.05) (SARS-CoV-2; 100 μM drug) | Inhibitory activity on viral RNA load: dependence on dose (in words) (SARS-CoV-2) | Viral nucleic acid load in vero E6 cells infected with SARS-CoV-2 (in words) (SARS-CoV-2) | Cell viability (% of negative control) (Vero E6 cells; 1.56 μM drug) | Cell viability (% of negative control) (Vero E6 cells; 3.13 μM drug) | Cell viability (% of negative control) (Vero E6 cells; 6.25 μM drug) | Cell viability (% of negative control) (Vero E6 cells; 12.5 μM drug) | Cell viability (% of negative control) (Vero E6 cells; 25 μM drug) | Cell viability (% of negative control) (Vero E6 cells; 50 μM drug) | Cell viability (% of negative control) (Vero E6 cells; 100 μM drug) | Cell viability (% of negative control) (Vero E6 cells; 200 μM drug) | Toxic effect on the cells (in words) (Vero E6 cells; all the tested concentrations) | Number of copies of viral genome (MOI = 0.05) (SARS-CoV-2; 3.13 μM drug) | Cell viability (% of negative control) (Vero E6 cells; 0.78 μM drug) | Number of copies of viral genome (MOI = 0.05) (SARS-CoV-2; 0.94 μM drug) | Number of copies of viral genome (MOI = 0.05) (SARS-CoV-2; 1.88 μM drug) | also measured
1 | C[C@@H]1CC[C@H]2[C@@H](C)C(=O)O[C@@H]3O[C@@]4(C)CC[C@@H]1[C@]32OO4 [artemisinin] | 79058074 copies | 72012135 copies | 61918172 copies | 31079912 copies | 37237188 copies | dose-dependent | effectively reduced viral nucleic acid load | 98.45 % of negative control | 101.55 % of negative control | 104.23 % of negative control | 112.55 % of negative control | 104.26 % of negative control | 110.71 % of negative control | 109.14 % of negative control | 97.14 % of negative control | no toxic effect |  |  |  |  | Number of copies of viral genome (MOI = 0.05) (SARS-CoV-2; 150 μM drug): 25440652 copies; Inhibition of replication of SARS-CoV-2 virus genome in the infection supernatant (in words) (SARS-CoV-2; at 150 μM, 100 μM and 50 μM): effectively inhibit
2 | C=C1C(=O)O[C@@]23[C@H]1CC[C@@H](C)[C@@H]2CC[C@@]1(C)O[C@@H]31 [arteannuin B] | 98310684 copies | 13307075 copies | 342654 copies | 176411 copies |  | dose-dependent | effectively reduced viral nucleic acid load | 90.63 % of negative control | 94.86 % of negative control | 102.66 % of negative control | 111.44 % of negative control | 95.10 % of negative control | 74.40 % of negative control | 26.24 % of negative control |  |  | 99188163 copies | 93.55 % of negative control |  |  | Number of copies of viral genome (MOI = 0.05) (SARS-CoV-2; 1.56 μM drug): 99554711 copies; Inhibition of replication of SARS-CoV-2 virus genome in the infection supernatant (in words) (SARS-CoV-2; at 50 μM, 25 μM and 12.5 μM): effectively inhibit; Toxic effect on the cells (in words) (Vero E6 cells; at 25 μM or lower): no toxic effect; Toxic effect on the cells (in words) (Vero E6 cells; at 50 μM): a certain toxicity
3 | C[C@H]1[C@@H](O)O[C@@H]2O[C@@]3(C)CC[C@H]4[C@H](C)CC[C@@H]1[C@@]24OO3 [dihydroartemisinin] | 55425811 copies | 31485734 copies | 23363010 copies |  |  |  |  | 98.80 % of negative control | 93.03 % of negative control | 100.38 % of negative control | 88.94 % of negative control | 66.36 % of negative control | 22.18 % of negative control | 2.33 % of negative control |  |  | 90162353 copies | 93.93 % of negative control | 111625955 copies | 68962319 copies | Toxic effect on the cells (in words) (Vero E6 cells; at 6.25 μM or lower): no toxic effect; Toxic effect on the cells (in words) (Vero E6 cells; at 12.5 μM): a slight toxicity
4 | CO[C@H]1O[C@@H]2O[C@@]3(C)CC[C@H]4[C@H](C)CC[C@@H]([C@H]1C)[C@@]24OO3 [artemether] | 49305413 copies | 68497905 copies | 32850309 copies | 26849476 copies | 3326694 copies |  |  | 107.12 % of negative control | 103.68 % of negative control | 115.71 % of negative control | 115.49 % of negative control | 118.96 % of negative control | 120.26 % of negative control | 130.18 % of negative control | 132.83 % of negative control | no toxic effect |  |  |  |  | Number of copies of viral genome (MOI = 0.05) (SARS-CoV-2; 200 μM drug): 250314 copies
5 | C[C@H]1[C@H](OC(=O)CCC(=O)O)O[C@@H]2O[C@@]3(C)CC[C@H]4[C@H](C)CC[C@@H]1[C@@]24OO3 [artesunate] | 113126147 copies | 111098018 copies | 70210200 copies |  |  | dose-dependent | effectively reduced viral nucleic acid load | 99.91 % of negative control | 97.52 % of negative control | 100.64 % of negative control | 93.38 % of negative control | 84.24 % of negative control | 55.44 % of negative control | 21.71 % of negative control |  |  | 170594446 copies | 100.09 % of negative control | 228511812 copies | 171362509 copies | Inhibition of replication of SARS-CoV-2 virus genome in the infection supernatant (in words) (SARS-CoV-2; at 25 μM, 12.5 μM and 6.25 μM): effectively inhibit; Toxic effect on the cells (in words) (Vero E6 cells; at 12.5 μM or lower): no toxic effect; Toxic effect on the cells (in words) (Vero E6 cells; at 25 μM): a slight toxicity

— patent publication US20230293485A1, “APPLICATION OF ARTEMISININ COMPOUND IN TREATMENT OF CORONAVIRUS INFECTION” (ACADEMY OF MILITARY MEDICAL SCIENCES, priority 2020, published 2023)
